From patent publication US12351570B2 (MERCK PATENT GMBH, priority 2018, dated 2025)

test system: MDA-MB-231 cells; assay: Extracellular lactate production inhibition after 4 h, MDA-MB-231; conditions: Homo sapiens, MDA-MB-231

Compound	IC50 [nM]
COc1ccc(S(=O)(=O)Nc2ccccc2C#Cc2ccc(C(=O)NO)nc2)c2ncccc12 [Compound 216, N-hydroxy-5-{2-[2-(5-methoxyquinoline-8-sulfonamido)phenyl]ethynyl}pyridine-2-carboxamide]	100 to 1000
COc1ccc(C#Cc2ccc(C(=O)O)nc2)c(NS(=O)(=O)c2c(C)ccc3cccnc23)c1 [Compound 218, 5-{2-[4-methoxy-2-(7-methylquinoline-8-sulfonamido)phenyl]ethynyl}pyridine-2-carboxylic acid]	100 to 1000
COc1cc(C(=O)O)ncc1C#Cc1ccccc1NS(=O)(=O)N1CCC2CCCCC21 (centres unmarked) [Compound 219, 4-methoxy-5-(2-{2-[(octahydro-1H-indole-1-sulfonyl)amino]phenyl}ethynyl)pyridine-2-carboxylic acid]	100 to 1000
O=CN(Cc1ccc(-c2ccccc2)nc1)c1ccccc1C#Cc1ccc(C(=O)O)nc1 [Compound 220, 5-[2-(2-{N-[(6-phenylpyridin-3-yl)methyl]formamido}phenyl)-ethynyl]pyridine-2-carboxylic acid]	100 to 1000
COc1cc(C(=O)O)ncc1C#Cc1ccccc1NS(=O)(=O)N1CCC[C@@H]2CCCC[C@H]21 [Compound 221, 5-[2-(2-{[(4a,8a-trans)-decahydro-quinoline-1-sulfonyl]amino}phenyl)-ethynyl]-4-methoxypyridine-2-carboxylic acid]	1 to 10
COc1cc(C(=O)O)ncc1C#Cc1ccccc1NS(=O)(=O)N1CCC(C)C2CCCCC21 (centres unmarked) [Compound 222, 4-methoxy-5-[2-(2-{[(4-methyl-deca-hydroquinolin-1-yl)sulfonyl]amino}-phenyl)ethynyl]pyridine-2-carboxylic acid]	10 to 100
COc1cc(C(=O)N(C)C)ncc1C#Cc1ccccc1NS(=O)(=O)c1ccc(OC)c2cccnc12 [Compound 223, 4-methoxy-5-{2-[2-(5-methoxyquinoline-8-sulfonamido)phenyl]ethynyl}-N,N-dimethylpyridine-2-carboxamide]	1000 to 100000
COc1cc(C(=O)NO)ncc1C#Cc1ccccc1NS(=O)(=O)c1ccc(OC)c2cccnc12 [Compound 224, N-hydroxy-4-methoxy-5-{2-[2-(5-methoxyquinoline-8-sulfonamido)phenyl-]ethynyl}pyridine-2-carboxamide]	100 to 1000
Cc1cc(C#Cc2ccccc2NS(=O)(=O)N2CCC[C@@H]3CCCC[C@H]32)cnc1C(=O)O [Compound 225, 5-[2-(2-{[(4a,8a-trans)-decahydro-quinoline-1-sulfonyl]amino}phenyl)-ethynyl]-3-methylpyridine-2-carboxylic acid]	10 to 100
Cc1ccc2cccnc2c1S(=O)(=O)Nc1ccccc1C#Cc1cnc(C(=O)O)cc1-c1ccccc1 [Compound 226, 5-{2-[2-(7-methylquinoline-8-sulfonamido)phenyl]ethynyl}-4-phenylpyridine-2-carboxylic acid]	10 to 100
Cn1c2ccccc2c2cc(S(=O)(=O)Nc3ccccc3C#Cc3ccc(C(=O)O)nc3)ccc21 [Compound 227, 5-{2-[2-(9-methyl-9H-carbazole-3-sulfonamido)phenyl]ethynyl}pyridine-2-carboxylic acid]	10 to 100
CC1CCN(S(=O)(=O)Nc2ccccc2C#Cc2ccc(C(=O)O)nc2)C2CCCCC12 (centres unmarked) [Compound 228, 5-[2-(2-{[(4-methyl-decahydroquinolin-1-yl)sulfonyl]amino}phenyl)ethynyl]pyridine-2-carboxylic acid]	10 to 100
COc1cc(C#Cc2ccccc2NS(=O)(=O)c2ccc(OC)c3cccnc23)ccc1C(=O)O [Compound 230, 2-methoxy-4-{2-[2-(5-methoxyquinoline-8-sulfonamido)phenyl]ethynyl}benzoic acid]	100 to 1000
Cc1ccc2cccnc2c1S(=O)(=O)Nc1ccc(N)cc1C#Cc1ccc(C(=O)O)nc1 [Compound 231, 5-{2-[5-amino-2-(7-methylquinoline-8-sulfonamido)phenyl]ethynyl}pyridine-2-carboxylic acid]	1000 to 100000
CNc1cc(C#Cc2ccccc2NS(=O)(=O)c2ccc(OC)c3cccnc23)ccc1C(=O)O [Compound 232, 4-{2-[2-(5-methoxyquinoline-8-sulfonamido)phenyl]ethynyl}-2-(methylamino)benzoic acid]	100 to 1000
Cc1ccc2cccnc2c1S(=O)(=O)Nc1ccc(Br)cc1C#Cc1cnc(C(=O)O)c2ccccc12 [Compound 233, 4-{2-[5-bromo-2-(7-methylquinoline-8-sulfonamido)phenyl]ethynyl}isoquinoline-1-carboxylic acid]	10 to 100
Cc1ccc2cccnc2c1S(=O)(=O)Nc1ccc(Cl)cc1C#Cc1cnc(C(=O)O)c2ccccc12 [Compound 234, 4-{2-[5-chloro-2-(7-methylquinoline-8-sulfonamido)phenyl]ethynyl}isoquinoline-1-carboxylic acid]	10 to 100
COc1ccc(S(=O)(=O)Nc2ccc(Br)cc2C#Cc2cnc(C(=O)O)c3ccccc23)c2ncccc12 [Compound 235, 4-{2-[5-bromo-2-(5-methoxyquinoline-8-sulfonamido)phenyl]ethynyl}isoquinoline-1-carboxylic acid]	1 to 10
COc1ccc(S(=O)(=O)Nc2ccc(Cl)cc2C#Cc2cnc(C(=O)O)c3ccccc23)c2ncccc12 [Compound 236, 4-{2-[5-chloro-2-(5-methoxyquinoline-8-sulfonamido)phenyl]ethynyl}isoquinoline-1-carboxylic acid]	10 to 100
CNc1cc(C#Cc2cc(Cl)ccc2NS(=O)(=O)c2c(C)ccc3cccnc23)cnc1C(=O)O [Compound 237, 5-{2-[5-chloro-2-(7-methylquinoline-8-sulfonamido)phenyl]ethynyl}-3-(methylamino)pyridine-2-carboxylic acid]	1 to 10

The remaining lines, values ahead:

IC50 [nM]	Compound
1000 to 100000	COc1ccc(S(=O)(=O)Nc2ccc(Br)cc2C#Cc2ccc(C(=O)N(C)C)nc2)c2ncccc12 [Compound 238, 5-{2-[5-bromo-2-(5-methoxyquinoline-8-sulfonamido)phenyl]ethynyl}-N,N-dimethylpyridine-2-carboxamide]
1000 to 100000	COc1ccc(S(=O)(=O)Nc2ccc(Cl)cc2C#Cc2ccc(C(=O)N(C)C)nc2)c2ncccc12 [Compound 239, 5-{2-[5-chloro-2-(5-methoxyquinoline-8-sulfonamido)phenyl]ethynyl}-N,N-dimethylpyridine-2-carboxamide]
10 to 100	COc1cc(C(=O)O)ncc1C#Cc1ccccc1NS(=O)(=O)c1ccc(OC)c(C)c1C [Compound 241, 4-methoxy-5-{2-[2-(4-methoxy-2,3-dimethylbenzenesulfonamido)-phenyl]ethynyl}pyridine-2-carboxylic acid]
1 to 10	CNc1cc(C#Cc2cc(Cl)ccc2NS(=O)(=O)c2ccc(OC)c3cccnc23)cnc1C(=O)O [Compound 242, 5-{2-[5-chloro-2-(5-methoxyquinoline-8-sulfonamido)phenyl]ethynyl}-3-(methyl-amino)pyridine-2-carboxylic acid]
1 to 10	COc1cc(C(=O)O)ncc1C#Cc1cc(Cl)ccc1NS(=O)(=O)c1ccc(OC)c(C)c1C [Compound 243, 5-{2-[5-chloro-2-(4-methoxy-2,3-dimethylbenzenesulfonamido)-phenyl]ethynyl}-4-methoxypyridine-2-carboxylic acid]
10 to 100	COC(=O)c1ccc(C#Cc2cc([N+](=O)[O-])ccc2NS(=O)(=O)c2c(C)ccc3cccnc23)cn1 [Compound 244, methyl 5-{2-[2-(7-methylquinoline-8-sulfonamido)-5-nitrophenyl]ethynyl}-pyridine-2-carboxylate]
1000 to 100000	COc1ccc(S(=O)(=O)Nc2ccccc2C#Cc2cnc3c(c2)CN(C)C3=O)c2ncccc12 [Compound 245, 5-methoxy-N-[2-(2-{6-methyl-7-oxo-5H,6H,7H-pyrrolo[3,4-b]pyridin-3-yl}ethynyl)phenyl]quinoline-8-sulfonamide]
1000 to 100000	CNc1cc(C#Cc2ccccc2NS(=O)(=O)c2ccc(OC)c3cccnc23)cnc1C(=O)N(C)C [Compound 246, 5-{2-[2-(5-methoxyquinoline-8-sulfonamido)phenyl]ethynyl}-N,N-dimethyl-3-(methylamino)pyridine-2-carboxamide]
10 to 100	COc1ccc(NS(=O)(=O)c2c(C)ccc3cccnc23)c(C#Cc2ccc(C(=O)O)nc2)c1 [Compound 247, 5-{2-[5-methoxy-2-(7-methylquinoline-8-sulfonamido)phenyl]ethynyl}pyridine-2-carboxylic acid]
100 to 1000	Cc1ccc2cccnc2c1S(=O)(=O)Nc1ccc(N(C)C)cc1C#Cc1ccc(C(=O)O)nc1 [Compound 248, 5-{2-[5-(dimethylamino)-2-(7-methylquinoline-8-sulfonamido)phenyl]ethynyl}pyridine-2-carboxylic acid]
1000 to 100000	O=C(O)c1ccc(C#Cc2ccccc2NS(=O)(=O)c2ccc3c(c2)OCCO3)cc1 [Compound 250, 4-[2-(2,3-Dihydro-benzo[1,4]dioxine-6-sulfonylamino)-phenylethynyl]-benzoic acid]
1000 to 100000	O=C(O)c1ccc(C#Cc2ccccc2NS(=O)(=O)c2cccc3c2OC(F)(F)O3)cc1 [Compound 251, 4-[2-(2,2-Difluoro-benzo[1,3]dioxole-4-sulfonylamino)-phenylethynyl]-benzoic acid]
1000 to 100000	COc1ccc(S(=O)(=O)Nc2ccccc2C#Cc2ccc(C(=O)NS(C)(=O)=O)cc2)c2ccccc12 [Compound 252, 4-Methoxy-naphthalene-1-sulfonic acid [2-(4-methanesulfonylaminocarbonyl-phenylethynyl)-phenyl]-amide]
1000 to 100000	COc1ccc(S(=O)(=O)Nc2ccccc2C#Cc2ccc(C(=O)NC#N)cc2)c2ccccc12 [Compound 253, N-cyano-4-{2-[2-(4-methoxy-naphthalene-1-sulfonamido)phenyl]-ethynyl}benzamide]
1000 to 100000	O=C(O)c1ccc(C#Cc2ccccc2NS(=O)(=O)c2cccc3c2OCCO3)cc1 [Compound 254, 4-[2-(2,3-Dihydro-benzo[1,4]dioxine-5-sulfonylamino)-phenylethynyl]-benzoic acid]
